The source of these data is the SangsterLogP compilation.

Each structure is given as a SMILES string.

For the compound `O=C(O)CCCCO/N=C(/c1ccccc1)c1ccnnc1`, the logP is -0.33. For `O=C(O)CCCO/N=C(\c1ccccc1)c1ccnnc1` the value was -0.4; for `O=C(O)CCCO/N=C(/c1ccccc1)c1cnccn1`, -0.53. For `O=C(O)CCCCO/N=C(/c1ccccc1)c1cnccn1` the value was -0.23; for `O=C(O)CCCCCON=C(c1ccccc1)c1cnccn1`, 0.23. `O=C(O)CCCO/N=C(/c1ccccc1)c1cccnn1` had a log partition coefficient (logP) of -0.27. Take `O=C(O)CCCCO/N=C(/c1ccccc1)c1cccnn1`: the logP stood at 0. `O=C(O)CCCCCO/N=C(/c1ccccc1)c1ccnnc1`: the logP came out at 0.1.

In turn, `O=C(O)CCCCCO/N=C(/c1ccccc1)c1cccnn1` yielded a logP of -0.01.

A word on the logP: it is a log measure of how a compound divides between an organic and an aqueous phase. A lower logP goes with a more hydrophilic compound.
